Reference: ChEMBL document CHEMBL3779873, “Rubrolide analogues and their derived lactams as potential anticancer agents” (Medchemcomm, 2016)
Activity calls are given as the source filed them. The rule behind the calls is not given here.

Legend:
HL-60 [1] = assay: Induction of cell cycle arrest in human HL60 cells assessed as accumulation at G0/G1 phase at 0.5 uM after 24 hrs by annexin V/propidium iodide staining based flow cytometry (reference value: 45.81 +/- 3.16%); format: functional
HL-60 [2] = assay: Induction of cell cycle arrest in human HL60 cells assessed as accumulation at sub-G0/G1 phase at 0.5 uM after 24 hrs by annexin V/propidium iodide staining based flow cytometry (reference value: 6.10 +/- 0.28 %); format: functional
[3] = Cytotoxicity against human SF295 cells after 72 hrs by MTT assay; format: functional, SF-295
[4] = Cytotoxicity against human OVCAR8 cells after 72 hrs by MTT assay; format: functional, OVCAR-8
HL-60 [5] = assay: Induction of apoptosis in human HL60 cells assessed as chromatin condensation at 0.5 uM after 24 hrs by giemsa staining-based light microscopy analysis; format: functional, cell-based
HL-60 [6] = assay: Induction of apoptosis in human HL60 cells assessed as cell shrinkage at 0.5 uM after 24 hrs by giemsa staining-based light microscopy analysis; format: functional
HL-60 [7] = assay: Induction of cell cycle arrest in human HL60 cells assessed as accumulation at G2/M phase at 0.5 uM after 24 hrs by annexin V/propidium iodide staining based flow cytometry (reference value: 19.04 +/- 1.1%); format: functional
[8] = Cytotoxicity against human HCT116 cells after 72 hrs by MTT assay; format: functional, HCT-116
HL-60 [9] = assay: Induction of apoptosis in human HL60 cells assessed as nuclear fragmentation at 0.5 uM after 24 hrs by giemsa staining-based light microscopy analysis; format: functional, cell-based
HL-60 [10] = assay: Induction of cell cycle arrest in human HL60 cells assessed as accumulation at S phase at 0.5 uM after 24 hrs by annexin V/propidium iodide staining based flow cytometry (reference value: 27.64 +/- 2.15%); format: functional
[11] = Cytotoxicity against human HL60 cells after 72 hrs by MTT assay; format: functional, HL-60
HL-60 [12] = assay: Induction of apoptosis in human HL60 cells assessed as decrease in viable cells after 24 hrs by acridine orange/ethidium bromide staining based fluorescence microscopy; format: functional, cell-based
HL-60 [13] = assay: Induction of apoptosis in human HL60 cells assessed as chromatin condensation at 2.5 to 10 uM after 24 hrs by giemsa staining-based light microscopy analysis; format: functional, cell-based
HL-60 [14] = assay: Induction of cell cycle arrest in human HL60 cells assessed as accumulation at G2/M phase at 10 uM after 24 hrs by annexin V/propidium iodide staining based flow cytometry (reference value: 19.04 +/- 1.10 %); format: functional
HL-60 [15] = assay: Induction of apoptosis in human HL60 cells assessed as chromatolysis at 2.5 to 10 uM after 24 hrs by giemsa staining-based light microscopy analysis; format: functional, cell-based
[16] = Cytotoxicity against human HCT116 cells assessed as reduction in cell viability at 25 ug/mL after 72 hrs by MTT assay; format: functional, HCT-116
HL-60 [17] = assay: Induction of apoptosis in human HL60 cells assessed as mitochondrial depolarization after 24 hrs by rhodamine-123 as fluorescent dye based flow cytometry; format: functional, cell-based
HL-60 [18] = assay: Induction of apoptosis in human HL60 cells assessed as decrease in viable cells at 10 uM after 24 hrs by acridine orange/ethidium bromide staining based fluorescence microscopy; format: functional
HL-60 [19] = assay: Induction of cell cycle arrest in human HL60 cells assessed as accumulation at S phase at 5 uM after 24 hrs by annexin V/propidium iodide staining based flow cytometry (reference value: 27.64 +/- 2.15 %); format: functional
HL-60 [20] = assay: Induction of apoptosis in human HL60 cells assessed as intranuclear vacuoles at 2.5 to 10 uM after 24 hrs by giemsa staining-based light microscopy analysis; format: functional, cell-based
HL-60 [21] = assay: Induction of apoptosis in human HL60 cells assessed as increase in apoptotic cells at 2.5 uM after 24 hrs by acridine orange/ethidium bromide staining based fluorescence microscopy; format: functional
[22] = Cytotoxicity against human SF295 cells assessed as reduction in cell viability at 25 ug/mL after 72 hrs by MTT assay; format: functional, SF-295
HL-60 [23] = assay: Induction of apoptosis in human HL60 cells assessed as increase in apoptotic cells after 24 hrs by acridine orange/ethidium bromide staining based fluorescence microscopy; format: functional, cell-based
HL-60 [24] = assay: Induction of apoptosis in human HL60 cells assessed as increase in apoptotic cells at 10 uM after 24 hrs by acridine orange/ethidium bromide staining based fluorescence microscopy; format: functional
HL-60 [25] = assay: Induction of apoptosis in human HL60 cells assessed as cytoplasmic budding at 2.5 to 10 uM after 24 hrs by giemsa staining-based light microscopy analysis; format: functional, cell-based
HL-60 [26] = assay: Induction of cell cycle arrest in human HL60 cells assessed as accumulation at S phase at 2.5 uM after 24 hrs by annexin V/propidium iodide staining based flow cytometry (reference value: 27.64 +/- 2.15 %); format: functional
HL-60 [27] = assay: Induction of apoptosis in human HL60 cells assessed as mitochondrial depolarization at 2.5 uM after 24 hrs by rhodamine-123 as fluorescent dye based flow cytometry; format: functional
HL-60 [28] = assay: Induction of cell cycle arrest in human HL60 cells assessed as accumulation at sub-G0/G1 phase at 2.5 uM after 24 hrs by annexin V/propidium iodide staining based flow cytometry (reference value: 6.10 +/- 0.28 %); format: functional
HL-60 [29] = assay: Induction of apoptosis in human HL60 cells assessed as DNA fragmentation after 24 hrs by annexin V/propidium iodide staining based flow cytometry; format: functional, cell-based
[30] = Cytotoxicity against mouse L929 cells after 72 hrs by MTT assay; format: cell-based; settings: read-out: RC50
HL-60 [31] = assay: Induction of apoptosis in human HL60 cells assessed as phosphatidylserine externalization at 2.5 uM after 24 hrs by annexin V/propidium iodide staining based flow cytometry; format: functional
HL-60 [32] = assay: Induction of apoptosis in human HL60 cells assessed as decrease in viable cells at 5 uM after 24 hrs by acridine orange/ethidium bromide staining based fluorescence microscopy; format: functional
HL-60 [33] = assay: Induction of apoptosis in human HL60 cells assessed as mitochondrial depolarization at 5 uM after 24 hrs by rhodamine-123 as fluorescent dye based flow cytometry; format: functional
HL-60 [34] = assay: Induction of cell cycle arrest in human HL60 cells assessed as accumulation at G2/M phase at 5 uM after 24 hrs by annexin V/propidium iodide staining based flow cytometry (reference value: 19.04 +/- 1.10 %); format: functional
HL-60 [35] = assay: Induction of cell cycle arrest in human HL60 cells assessed as accumulation at G0/G1 phase at 5 uM after 24 hrs by annexin V/propidium iodide staining based flow cytometry (reference value: 45.81 +/- 3.16 %); format: functional
[36] = Cytotoxicity against human OVCAR8 cells assessed as reduction in cell viability at 25 ug/mL after 72 hrs by MTT assay; format: functional, OVCAR-8
HL-60 [37] = assay: Induction of cell cycle arrest in human HL60 cells assessed as accumulation at G0/G1 phase at 10 uM after 24 hrs by annexin V/propidium iodide staining based flow cytometry (reference value: 45.81 +/- 3.16 %); format: functional
HL-60 [38] = assay: Induction of cell cycle arrest in human HL60 cells assessed as accumulation at sub-G0/G1 phase at 10 uM after 24 hrs by annexin V/propidium iodide staining based flow cytometry (reference value: 6.10 +/- 0.28 %); format: functional
HL-60 [39] = assay: Induction of cell cycle arrest in human HL60 cells assessed as accumulation at sub-G0/G1 phase at 5 uM after 24 hrs by annexin V/propidium iodide staining based flow cytometry (reference value: 6.10 +/- 0.28 %); format: functional
HL-60 [40] = assay: Induction of apoptosis in human HL60 cells assessed as increase in necrotic cells at 10 uM after 24 hrs by acridine orange/ethidium bromide staining based fluorescence microscopy; format: functional
HL-60 [41] = assay: Induction of apoptosis in human HL60 cells assessed as reduction in cellular and nuclear volumes at 2.5 to 10 uM after 24 hrs by giemsa staining-based light microscopy analysis; format: functional, cell-based
HL-60 [42] = assay: Induction of apoptosis in human HL60 cells assessed as decrease in viable cells at 2.5 uM after 24 hrs by acridine orange/ethidium bromide staining based fluorescence microscopy; format: functional
HL-60 [43] = assay: Induction of apoptosis in human HL60 cells assessed as mitochondrial depolarization at 10 uM after 24 hrs by rhodamine-123 as fluorescent dye based flow cytometry; format: functional
HL-60 [44] = assay: Induction of apoptosis in human HL60 cells assessed as phosphatidylserine externalization at 10 uM after 24 hrs by annexin V/propidium iodide staining based flow cytometry; format: functional
HL-60 [45] = assay: Induction of apoptosis in human HL60 cells assessed as increase in necrotic cells after 24 hrs by acridine orange/ethidium bromide staining based fluorescence microscopy; format: functional, cell-based
HL-60 [46] = assay: Induction of apoptosis in human HL60 cells assessed as phosphatidylserine externalization at 5 uM after 24 hrs by annexin V/propidium iodide staining based flow cytometry; format: functional
HL-60 [47] = assay: Induction of cell cycle arrest in human HL60 cells assessed as accumulation at G0/G1 phase at 2.5 uM after 24 hrs by annexin V/propidium iodide staining based flow cytometry (reference value: 45.81 +/- 3.16 %); format: functional
HL-60 [48] = assay: Induction of cell cycle arrest in human HL60 cells assessed as accumulation at S phase at 10 uM after 24 hrs by annexin V/propidium iodide staining based flow cytometry (reference value: 27.64 +/- 2.15 %); format: functional
HL-60 [49] = assay: Induction of cell cycle arrest in human HL60 cells assessed as accumulation at G2/M phase at 2.5 uM after 24 hrs by annexin V/propidium iodide staining based flow cytometry (reference value: 19.04 +/- 1.10 %); format: functional

Work on `COc1cccc2c1C(=O)c1c(O)c3c(c(O)c1C2=O)C[C@@](O)(C(=O)CO)C[C@@H]3O[C@H]1C[C@H](N)[C@H](O)[C@H](C)O1` [DOXORUBICIN] yielded an Activity (HL-60 [1]) of 33.78%, an Activity (HL-60 [2]) of 46.25% and an RC50 [3] of 0.44 µM. For the same molecule, the RC50 [4] was 0.62 µM, the Activity (HL-60 [5]) was “Active” and the Activity (HL-60 [6]) was “Active”. The Activity (HL-60 [7]) was 2.59%, the RC50 [8] was 0.04 µM and the Activity (HL-60 [9]) was “Active”. The Activity (HL-60 [10]) was 15.5% and the RC50 [11] was 0.02 µM.

In the case of `COc1ccc(Br)cc1C1=C(Br)C(=O)O/C1=C\c1ccc(C(F)(F)F)cc1`, the Activity (HL-60 [12]) was “Dose-dependent effect”, the Activity (HL-60 [13]) was “Active” and the Activity (HL-60 [14]) was 9.12%. For the same molecule, the Activity (HL-60 [15]) was “Active”, the Activity [16] was 98.22% and the Activity (HL-60 [17]) was “Dose-dependent effect”. It also gave an Activity (HL-60 [18]) of 11.8%, an Activity (HL-60 [19]) of 12.93% and an RC50 [3] of 4.9 µM. The Activity (HL-60 [20]) was “Active”, the Activity (HL-60 [21]) was 31.3% and the RC50 [4] was 2.74 µM. The Activity [22] was 91.06%, the Activity (HL-60 [23]) was “Dose-dependent effect” and the Activity (HL-60 [24]) was 71.5%. The Activity (HL-60 [25]) was “Active”, the Activity (HL-60 [26]) was 13.75% and the Activity (HL-60 [27]) was 35.1%. For the same molecule, the Activity (HL-60 [28]) was 15.27%, the Activity (HL-60 [29]) was “Dose-dependent effect” and the CC50 at 72 h [30] was over 50 µM. It also gave an Activity (HL-60 [31]) of 16.2%, an RC50 [8] of 2.98 µM and an Activity (HL-60 [32]) of 38.8%. The Activity (HL-60 [33]) was 47%, the Activity (HL-60 [34]) was 2.86% and the Activity (HL-60 [35]) was 72.43%. The Activity [36] was 99.5%, the Activity (HL-60 [37]) was 31.64% and the Activity (HL-60 [38]) was 48.52%. For the same molecule, the Activity (HL-60 [39]) was 23.17%, the Activity (HL-60 [40]) was 16.7% and the Activity (HL-60 [41]) was “Active”. It also gave an Activity (HL-60 [42]) of 67.1%, an Activity (HL-60 [43]) of 68% and an Activity (HL-60 [44]) of 48.1%. The Activity (HL-60 [45]) was “Dose-dependent effect”, the Activity (HL-60 [46]) was 33.3% and the Activity (HL-60 [47]) was 72.81%. The RC50 [11] was 3.58 µM, the Activity (HL-60 [48]) was 11.81% and the Activity (HL-60 [49]) was 5.92%.

With `O=C1O/C(=C\c2ccc([N+](=O)[O-])cc2)C(Cl)=C1Cl` the Activity [16] was 93.05%, the RC50 [3] was 29.37 µM and the RC50 [4] was 9.51 µM. For the same molecule, the Activity [22] was 84.12%, the RC50 [8] was 22.76 µM and the Activity [36] was 98.2%. The RC50 [11] was 8.98 µM.
